Source: publication PMC6437058 (mBio, 2019)

Target: anthranilate synthase TrpE (Rv1609) (Mycobacterium tuberculosis, UniProt P9WFX3)
Test: biochemical

Sequence of anthranilate synthase TrpE (Rv1609) (P9WFX3 whole entry): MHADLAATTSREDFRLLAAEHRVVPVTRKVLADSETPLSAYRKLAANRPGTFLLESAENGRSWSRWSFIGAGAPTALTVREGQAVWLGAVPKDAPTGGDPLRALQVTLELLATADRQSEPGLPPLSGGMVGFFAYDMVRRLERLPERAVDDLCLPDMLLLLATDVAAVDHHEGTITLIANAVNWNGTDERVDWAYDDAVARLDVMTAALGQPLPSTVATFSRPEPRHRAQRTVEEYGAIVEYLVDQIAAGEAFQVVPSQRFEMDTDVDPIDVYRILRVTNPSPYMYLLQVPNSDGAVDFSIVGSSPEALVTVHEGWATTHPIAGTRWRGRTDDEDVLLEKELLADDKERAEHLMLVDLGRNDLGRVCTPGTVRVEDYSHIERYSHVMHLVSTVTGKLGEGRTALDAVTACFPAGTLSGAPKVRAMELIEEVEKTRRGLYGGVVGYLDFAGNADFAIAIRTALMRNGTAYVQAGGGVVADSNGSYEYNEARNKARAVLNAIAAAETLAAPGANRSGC

Structure (SMILES): N[C@@H](Cc1c[nH]c2ccc(F)cc12)C(=O)O [F-Trp, 5-fluoro-L-tryptophan]
- IC50: 4.1 µM
